For 1 molecule, positive allosteric modulation results are on record in US7981914B2, “Tetrazole-substituted aryl amide derivatives and uses thereof” (Roche Palo Alto LLC, priority 2007, dated 2011).

Each structure is given as a SMILES string.

The target of this assay is T1, human nicotinic alpha7 WT receptor (Homo sapiens, UniProt P36544).
T1 construct: expressed in transfected cells; host or cells: GH4C1 (rat pituitary-derived cell line), RPA clone #34.7
Put plainly: Nicotinic alpha 7 Modulation Assay (FLIPR). It is filed as cell-based. Conditions: GH4C1 cells stably expressing human nicotinic alpha7 WT receptor, ACh 30 μM, positive control 1 μM PNU-120596. How it is done: Nicotinic alpha 7 Modulation Assay
Cell Culture Growth Media: F10 medium (Invitrogen), 2.5% Fetal Bovine Serum (FBS, Summit Biotechnology); 15% heat inactivated donor Horse Serum (Invitrogen), 250 μg/ml Hygromycin B (Invitrogen); and 100 nM Methyllicaconite (MLA, Sigma) are added to each new culture by 50-fold dilution of stock solution prepared in H2O at 5 μM.
GH4C1 cells (rat pituitary-derived cell line) stably expressing human nicotinic alpha7 WT receptor (RPA clone #34.7) are cultivated in cell culture growth media (described above) at 37 C in a humidified atmosphere containing 4% CO2. […]
The alpha 7 nAChR assay is a cell-based functional readout designed to determine the effect of test compounds to either directly activate nicotinic receptor channels and/or to modulate activation by the native agonist acetylcholine (ACh, Sigma). […]
Assay of test compound effect on activation of the alpha7 nicotinic receptor channel is done by measurement of cytosolic [Ca^2+] elevation as reported by increased FLUO-3 fluorescence using a two addition experimental design and FLIPR™ (Molecular Devices). Following a 30 second baseline recording, test compounds are added online (dilution scheme below) and cell response is recorded for an additional 5 minutes. After a second addition of ACh (30 μM, FAC), plates are read for an additional 4 minutes. […]

T1 sequence (P36544 23-502): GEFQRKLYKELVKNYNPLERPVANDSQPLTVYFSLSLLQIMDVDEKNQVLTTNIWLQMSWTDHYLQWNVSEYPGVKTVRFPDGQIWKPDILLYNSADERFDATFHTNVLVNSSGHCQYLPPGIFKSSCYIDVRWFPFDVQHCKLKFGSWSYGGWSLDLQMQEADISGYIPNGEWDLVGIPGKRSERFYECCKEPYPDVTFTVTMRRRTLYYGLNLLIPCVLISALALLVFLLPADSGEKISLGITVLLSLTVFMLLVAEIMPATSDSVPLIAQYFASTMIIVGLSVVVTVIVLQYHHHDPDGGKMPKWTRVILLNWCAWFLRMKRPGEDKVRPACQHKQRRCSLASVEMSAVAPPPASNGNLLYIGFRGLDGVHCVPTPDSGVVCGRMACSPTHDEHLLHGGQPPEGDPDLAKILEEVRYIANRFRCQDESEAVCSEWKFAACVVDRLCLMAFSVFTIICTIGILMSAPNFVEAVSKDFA

On to `COc1ccccc1-c1cc(C(=O)NCCc2ccc(S(N)(=O)=O)cc2)cc(-n2cnnn2)c1` [Compound 4, 2′-Methoxy-5-tetrazol-1-yl-biphenyl-3-carboxylic acid [2-(4-sulfamoyl-phenyl)-ethyl]-amide], for which the positive allosteric modulation came out at 467.65.
